{"source": "patent US12357629B2", "about": "“Uses of BCL-2 antagonists for treating cancer and diagnostics related thereto” (Emory University, priority 2018, dated 2025)", "key": {"[1]": {"tested_on": "ABT-199 resistant MM lines (KMS11, L363, RPMI-8226, MM.1S, U266)", "method": "Complex I inhibition with piercidin or SDHA inhibition with 3-NPA. L363, MM.15 and KMS 11 cells were cultured in the presence or absence of 0.S μM ABT-199 with or without either Complex I inhibitor piericidin (0.001 mM) or Complex II inhibitor 3NPA (1 mM) or TTFA (100 μM) for 24 hrs.\nKMS11, L363, RPMI-8226, MM.1S, U266 (ABT-199 resistant cell lines) and KMS12PE and OCIMY5 (ABT-199 sensitive cell lines) were cultured in presence of SQR inhibitor TTFA (100 uM) or DEX (0.5 uM) either alone or in combination with ABT-199 (0.5 uM) for 24 hrs. Cell viability was assessed by Annexin V-DAPI staining and Flow cytometry.\nResistant MM lines were treated with TTFA and/or a dose range of ABT-199 and cell death evaluated by Annexin V/DAPI staining."}, "[2]": {"tested_on": "normal cell populations contained within the bone marrow aspirate of patient sample", "test": "Cytotoxicity in normal cells within myeloma patient sample", "type": "cell-based", "text": "Synthetic lethality are not cytotoxic as a single agent in cell lines or primary normal cells associated with a myeloma patient sample."}, "[3]": {"tested_on": "MM patients exhibiting the (11;14) translocation", "conditions": "t(11;14) patients, cited from earlier work"}, "[4]": {"tested_on": "CD38+ve MM cells from myeloma patient samples", "test": "Cytotoxicity in myeloma patient sample cells", "type": "cell-based, human", "conditions": "TTFA with ABT-199"}, "[5]": {"tested_on": "BIM, BIM-Bcl-2 binding, Foxo3a", "test": "Protein expression and co-immunoprecipitation analyses upon SDH inhibition", "type": "cell-based", "text": "Thus, a tumor selective approach of metabolically-driven synthetic lethality relies on inhibition of the mitochondrial enzyme SDH and use of the Bcl-2 antagonist, e.g., ABT-199 for myeloma therapy."}, "[6]": {"biological_target": "Complex II/SDH succinate ubiquinone reductase (SQR) activity (Homo sapiens, UniProt O14521+P21912+P31040+Q99643)", "sequence (P31040 43-664)": "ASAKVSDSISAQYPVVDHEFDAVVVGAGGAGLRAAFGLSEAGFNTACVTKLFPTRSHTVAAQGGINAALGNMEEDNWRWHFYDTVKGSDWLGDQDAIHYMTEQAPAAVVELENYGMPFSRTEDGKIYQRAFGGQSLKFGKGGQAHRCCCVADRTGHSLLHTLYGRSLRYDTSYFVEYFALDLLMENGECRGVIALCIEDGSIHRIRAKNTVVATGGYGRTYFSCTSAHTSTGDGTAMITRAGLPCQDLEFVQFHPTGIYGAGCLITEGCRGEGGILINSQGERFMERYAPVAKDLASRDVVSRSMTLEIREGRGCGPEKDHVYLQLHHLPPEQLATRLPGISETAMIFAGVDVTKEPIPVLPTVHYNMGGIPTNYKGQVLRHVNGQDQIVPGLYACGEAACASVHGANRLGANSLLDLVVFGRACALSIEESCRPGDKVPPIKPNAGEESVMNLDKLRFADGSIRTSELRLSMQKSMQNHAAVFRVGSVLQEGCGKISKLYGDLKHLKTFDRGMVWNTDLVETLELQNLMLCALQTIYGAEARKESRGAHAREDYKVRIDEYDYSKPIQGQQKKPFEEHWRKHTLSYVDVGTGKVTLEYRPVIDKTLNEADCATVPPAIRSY", "sequence (P21912 29-280)": "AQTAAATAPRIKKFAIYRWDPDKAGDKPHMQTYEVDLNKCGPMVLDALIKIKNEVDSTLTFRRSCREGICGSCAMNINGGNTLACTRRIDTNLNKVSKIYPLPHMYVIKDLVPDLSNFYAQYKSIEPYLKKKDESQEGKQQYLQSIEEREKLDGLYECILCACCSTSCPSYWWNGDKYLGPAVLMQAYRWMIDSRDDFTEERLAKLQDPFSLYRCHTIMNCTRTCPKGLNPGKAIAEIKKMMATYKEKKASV", "sequence (Q99643 30-169)": "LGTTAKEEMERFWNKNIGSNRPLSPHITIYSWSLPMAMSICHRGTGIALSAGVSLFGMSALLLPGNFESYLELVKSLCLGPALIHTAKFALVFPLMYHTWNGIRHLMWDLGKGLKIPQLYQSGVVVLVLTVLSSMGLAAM", "sequence (O14521 57-159)": "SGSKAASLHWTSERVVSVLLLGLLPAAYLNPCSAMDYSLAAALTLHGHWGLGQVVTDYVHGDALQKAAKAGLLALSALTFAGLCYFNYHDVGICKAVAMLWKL", "test": "SQR (succinate ubiquinone reductase) activity assay in permeabilized cells, DCPIP absorbance at 600 nm", "conditions": "for SQR activity upon addition of inhibitor: KMS11 cells, 20 mM succinate as substrate, malonate 5 mM", "procedure": "Cells are resuspended in permeabilization buffer (10 mM KH2PO4 pH 7.8, 2 mM EDTA and 1 mg/ml BSA). 20 mM succinate is added as a substrate with or without 5 mM malonate (an SDH inhibitor) followed by a 10 min incubation at RT. SQR activity is determined by measuring electron transfer from succinate to decylubiquinone and 2,6-dichlorophenolindophenol (DCPIP) that leads to a change in absorbance of DCPIP monitored at 600 nm for 10 min.\nSQR activity is measured in live permeabilized cells, with intact mitochondria by pre-treating with inhibitors of Complex I (rotenone) and Complex III (antimycin) leaving Complex II/SDH activity intact. SQR activity correlates with electron transfer from ubiquinone bound in SQR's Qp site to the redox sensitive dye, DCIPIP."}, "[7]": {"conditions": "ABT-199 0.5 μM with TTFA 100 μM, piericidin 0.001 mM or 3NPA 1 mM, 24 hrs, Annexin V/DAPI"}}, "note": "“Also recorded” adds a separate entry of the source. Where two headings read alike, the source gives them in different places.", "data": [{"compound": "O=C(O)CC[N+](=O)[O-]", "note": "[3-NPA]", "values": [{"measurement": "Sensitization of resistant MM cell lines to ABT-199", "setting": "[1]; [7]", "result": "not as effective"}, {"measurement": "Sensitization of resistant MM cell lines to ABT-199", "setting": "[1]; ABT-199 0.5 μM with TTFA 100 μM, piericidin 0.001 mM or 3NPA 1 mM, 24 hrs, Annexin V/DAPI, listed as 3NPA", "result": "not as effective as TTFA"}]}, {"compound": "CC1(C)CCC(CN2CCN(c3ccc(C(=O)NS(=O)(=O)c4ccc(NCC5CCOCC5)c([N+](=O)[O-])c4)c(Oc4cnc5[nH]ccc5c4)c3)CC2)=C(c2ccc(Cl)cc2)C1", "note": "[ABT-199, 4-(4-{[2-(4-chlorophenyl)-4,4-dimethylcyclohex-1-en-1-yl]methyl}piperazin-1-yl)-N-({3-nitro-4-[(tetrahydro-2H-pyran-4-ylmethyl)amino]phenyl}sulfonyl)-2-(1H-pyrrolo[2,3-b]pyridin-5-yloxy)benzamide]", "values": [{"measurement": "Cytotoxicity as single agent in MM", "setting": "[1]; individually", "result": "did not elicit cytotoxicity"}, {"measurement": "Cytotoxicity in normal cells of myeloma patient sample", "setting": "[2]; bone marrow aspirate of patient sample #2", "result": "did not exhibit significant cytotoxicity"}, {"measurement": "Share of t(11;14) MM patients responsive to single agent", "setting": "[3]; listed as venetoclax", "result": "About 40%"}, {"measurement": "Share of t(11;14) MM patients responsive to single agent", "setting": "[3]", "result": 40, "unit": "%"}]}, {"compound": "O=C(CC(=O)C(F)(F)F)c1cccs1", "note": "[TTFA, 4,4,4-trifluoro-1-(thiophen-2-yl)butane-1,3-dione]", "values": [{"measurement": "Cytotoxicity as single agent in MM", "setting": "[1]", "result": "did not elicit cytotoxicity"}, {"measurement": "Sensitization of resistant MM cell lines to ABT-199", "setting": "[1]", "result": "potent sensitization; also recorded: sensitizes MM cells to ABT-199; also recorded: sensitized resistant MM cells to ABT-199"}, {"measurement": "Effect on Dex-induced death", "setting": "[1]; TTFA 100 uM, DEX 0.5 uM, ABT-199 0.5 uM, 24 hrs", "result": "additive to Dex-induced death"}, {"measurement": "Sensitization of MM patient cells to ABT-199", "setting": "[4]", "result": "potent sensitization; also recorded: sensitizes"}, {"measurement": "Cytotoxicity in normal cells of myeloma patient sample", "setting": "[2]", "result": "did not exhibit significant cytotoxicity"}, {"measurement": "BIM expression", "setting": "[5]; SDH inhibition with TTFA", "result": "induction of BIM"}, {"measurement": "BIM-Bcl-2 binding (co-immunoprecipitation)", "setting": "[5]; SDH inhibition with TTFA", "result": "enhanced BIM-Bcl-2 binding"}, {"measurement": "Foxo3a localization", "setting": "[5]; TTFA treated cells", "result": "nuclear localization"}, {"measurement": "Foxo3a phosphorylation", "setting": "[5]; TTFA treated cells", "result": "reduction of Foxo3a phosphorylation"}, {"measurement": "SQR activity upon addition of inhibitor", "setting": "[6]", "result": "lack of activity"}, {"measurement": "SQR activity at maximal dose of TTFA that did not cause cytotoxicity in MM", "setting": "[6]; MM cells", "result": "inhibited SQR activity"}]}, {"compound": "COc1[nH]c(=O)c(C(=O)C(C)CC(C)C(Cl)CCl)c(O)c1OC", "note": "(centres unmarked) [atpenin A5, 3-[5,6-dichloro-2,4-dimethylhexanoyl]-4-hydroxy-5,6-dimethoxy-1H-pyridin-2-one]", "values": [{"measurement": "Sensitization of resistant MM cell lines to ABT-199", "setting": "[1]; [7]", "result": "sensitizes resistant cell lines"}]}, {"compound": "C/C=C(\\C)[C@H](O)[C@H](C)/C=C(C)/C=C/C/C(C)=C/Cc1nc(OC)c(OC)c(O)c1C", "note": "[piericidin]", "values": [{"measurement": "Sensitization of resistant MM cell lines to ABT-199", "setting": "[1]; [7]", "result": "not as effective"}]}, {"compound": "malonate", "values": [{"measurement": "SQR activity upon addition of inhibitor", "setting": "[6]", "result": "lack of activity"}]}]}
